Data taken from patent US11952383B1, “Aza-podophyllotoxin analogues as potential anti-cancer agents” (KING FAISAL UNIVERSITY, priority 2023, dated 2024).
Like-named read-outs stand apart in the source and are kept apart here.

Tests used:
[1] = system: A-549 (lung cancer); assay: In vitro cytotoxic activity MTT assay, A-549; format: cell-based, human
Description: (§1) The cytotoxicity activity of the compounds of the current subject matter was assessed against three cancer cell lines such as A-549 (lung cancer), MCF-7 (breast cancer) and HL-60 (leukemia) cancer cells.
(§2) Compounds 1-15 were screened for their in vitro cytotoxic behavior utilizing a 3-(4,5-dimethyl-thiazol-2-yl)-2,5-diphenyltetrazolium bromide (MTT) assay against selected cancer human cell lines consisting of MCF-7 (human breast cancer), A-549 (lung cancer) and HL-60 (leukemia) (T. Mosmann, J. Immunol. Meth., 1983, 65, 55-63). The cells were cultured at 37° C. in RMPI1640 medium supplemented with 10% fetal bovine serum, 50 IU/mL penicillin, and 50 μg/mL streptomycin in a 5% CO2 incubator. All cells were sub-cultured 3 times/week by trypsinisation. Viable cells were seeded and allowed to adhere for 12 h before a test drug was added in 96-well plates at an initial density of 1.0×10^5 cells/mL. Tumour cell lines were separately exposed to various concentrations of the tested compounds followed by incubation at a temperature of 37° C. during 24 h inside a medium of fresh RMPI 1640. Cells were subsequently incubated at 37° C. using MTT at 0.5 mg/mL during 4 h. After removal of supernatant, formazan crystals were dissolved in isopropanol and the optical density was measured at 570 nm. Etopside and Cisplatin were used as a positive control.

[2] = system: MCF-7 (human breast cancer); assay: In vitro cytotoxic activity MTT assay, MCF-7; format: cell-based
Description: as §1, §2

[3] = system: HL-60 (leukemia); assay: In vitro cytotoxic activity MTT assay, HL-60; format: cell-based, human
Description: as §1, §2

[4] = A-549 lung cancer cells, MTT, 24 h incubation, read-out: Anti-proliferative activity: IC50 (μM) A-549
[5] = MCF-7 breast cancer cells, MTT, 24 h incubation, read-out: Anti-proliferative activity: IC50 (μM) MCF-7
[6] = HL-60 leukemia cells, MTT, 24 h incubation, read-out: Anti-proliferative activity: IC50 (μM) HL-60
[7] = Homo sapiens, A549, A-549 lung cancer cells, MTT, 24 h incubation, read-out: Anti-proliferative activity: IC50 (μM) A-549
[8] = Homo sapiens, MCF7, MCF-7 breast cancer cells, MTT, 24 h incubation, read-out: Anti-proliferative activity: IC50 (μM) MCF-7
[9] = Homo sapiens, HL-60 leukemia cells, MTT, 24 h incubation, read-out: Anti-proliferative activity: IC50 (μM) HL-60

Structure (SMILES)	IC50 [1, 4] [µM]	IC50 [2, 5] [µM]	IC50 [3, 6] [µM]	IC50 [1, 7] [µM]	IC50 [2, 8] [µM]	IC50 [3, 9] [µM]	IC50 ([1]; Homo sapiens, A549, A-549 cancer cells, read-out: IC50 (concentration of cytotoxic agent which inhibits proliferation of the treated cells by 50%) against A-549) [µM]	IC50 ([2]; Homo sapiens, MCF7, MCF-7 cancer cells, read-out: IC50 (concentration of cytotoxic agent which inhibits proliferation of the treated cells by 50%) against MCF-7) [µM]	IC50 ([3]; Homo sapiens, HL-60 cancer cells, read-out: IC50 (concentration of cytotoxic agent which inhibits proliferation of the treated cells by 50%) against HL-60) [µM]
N.N.[Cl][Pt][Cl] [Cisplatin, reference compound]	9.25	15.9	1.16						
COc1cc([C@@H]2c3cc4c(cc3[C@@H](O[C@@H]3O[C@@H]5CO[C@@H](C)O[C@H]5[C@H](O)[C@H]3O)[C@H]3COC(=O)[C@H]23)OCO4)cc(OC)c1O [Etoposide, reference compound]	11.9	32.8	0.31						
COc1ccc(C2C3=C(COC3=O)Nc3nc4ccccc4n32)cc1 (stereo not drawn) [Example 1, 11-(4-methoxyphenyl)-4,11-dihydro-1H,3H-benzo[4,5]imidazo[1,2-a]furo[3,4-d]pyrimidin-1-one]				0.092	0.126	0.082			
COc1ccc(C2C3=C(COC3=O)Nc3nc4ccccc4n32)cc1OC (stereo not drawn) [Example 2, 11-(3,4-dimethoxyphenyl)-4,11-dihydro-1H,3H-benzo[4,5]imidazo[1,2-a]furo[3,4-d]pyrimidin-1-one]				0.12	0.104	0.096			
COc1cc(C2C3=C(COC3=O)Nc3nc4ccccc4n32)cc(OC)c1OC (stereo not drawn) [Example 3, 11-(3,4,5-trimethoxyphenyl)-4,11-dihydro-1H,3H-benzo[4,5]imidazo[1,2-a]furo[3,4-d]pyrimidin-1-one]				0.081	0.115	0.128			
O=C1OCC2=C1C(c1ccc3c(c1)OCO3)n1c(nc3ccccc31)N2 (stereo not drawn) [Example 4, 11-(benzo[d][1,3]dioxol-5-yl)-4,11-dihydro-1H,3H-benzo[4,5]imidazo[1,2-a]furo[3,4-d]pyrimidin-1-one]				0.104	0.097	0.084			
O=C1OCC2=C1C(c1ccc(O)c(O)c1)n1c(nc3ccccc31)N2 (stereo not drawn) [Example 5, 11-(3,4-dihydroxyphenyl)-4,11-dihydro-1H,3H-benzo[4,5]imidazo[1,2-a]furo[3,4-d]pyrimidin-1-one]				0.151	0.154	0.178			
COc1cc(C2C3=C(COC3=O)Nc3nc4ccccc4n32)ccc1O (stereo not drawn) [Example 6, 11-(4-hydroxy-3-methoxyphenyl)-4,11-dihydro-1H,3H-benzo[4,5]imidazo[1,2-a]furo[3,4-d]pyrimidin-1-one]				0.095	0.105	0.133			
Cc1ccc(C2C3=C(COC3=O)Nc3nc4ccccc4n32)cc1 (stereo not drawn) [Example 7, 11-(p-tolyl)-4,11-dihydro-1H,3H-benzo[4,5]imidazo[1,2-a]furo[3,4-d]pyrimidin-1-one]				0.067	0.069	0.072			
CN(C)c1ccc(C2C3=C(COC3=O)Nc3nc4ccccc4n32)cc1 (stereo not drawn) [Example 8, 11-(4-(dimethylamino)phenyl)-4,11-dihydro-1H,3H-benzo[4,5]imidazo[1,2-a]furo[3,4-d]pyrimidin-1-one]				0.092	0.087	0.129			
Nc1ccc(C2C3=C(COC3=O)Nc3nc4ccccc4n32)cc1 (stereo not drawn) [Example 9, 11-(4-aminophenyl)-4,11-dihydro-1H,3H-benzo[4,5]imidazo[1,2-a]furo[3,4-d]pyrimidin-1-one]				0.123	0.162	0.143			
CC(=O)Nc1ccc(C2C3=C(COC3=O)Nc3nc4ccccc4n32)cc1 (stereo not drawn) [Example 10, N-(4-(1-oxo-4,11-dihydro-1H,3H-benzo[4,5]imidazo[1,2-a]furo[3,4-d]pyrimidin-11-yl)phenyl)acetamide]				0.211	0.374	0.281			
COc1cc(C2C3=C(CNC3=O)Nc3nc4ccccc4n32)cc(OC)c1OC (stereo not drawn) [Example 11, 11-(3,4,5-trimethoxyphenyl)-2,3,4,11-tetrahydro-1H-benzo[4,5]imidazo[1,2-a]pyrrolo[3,4-d]pyrimidin-1-one]				0.086	0.125	0.104			
COc1cc(C2C3=C(CSC3=O)Nc3nc4ccccc4n32)cc(OC)c1OC (stereo not drawn) [Example 12, 11-(3,4,5-trimethoxyphenyl)-4,11-dihydro-1H,3H-benzo[4,5]imidazo[1,2-a]thieno[3,4-d]pyrimidin-1-one]				0.075	0.111	0.085			
O=C1OCC2=C1C(c1ccc(F)cc1)n1c(nc3ccccc31)N2 (stereo not drawn) [Example 13, 11-(4-fluorophenyl)-4,11-dihydro-1H,3H-benzo[4,5]imidazo[1,2-a]furo[3,4-d]pyrimidin-1-one]				0.071	0.045	0.061	0.071	0.045	0.061
O=C1OCC2=C1C(c1ccc(Cl)cc1)n1c(nc3ccccc31)N2 (stereo not drawn) [Example 14, 11-(4-chlorophenyl)-4,11-dihydro-1H,3H-benzo[4,5]imidazo[1,2-a]furo[3,4-d]pyrimidin-1-one]				0.058	0.074	0.069			
O=C1OCC2=C1C(c1ccc(Br)cc1)n1c(nc3ccccc31)N2 (stereo not drawn) [Example 15, 11-(4-bromophenyl)-4,11-dihydro-1H,3H-benzo[4,5]imidazo[1,2-a]furo[3,4-d]pyrimidin-1-one]				0.105	0.081	0.092			
